Molecules are shown by their SMILES. Numbering of substitutions follows the chain as printed.

Assay [1] has as its target T1, vHGlyRα1 infected HEK 293T cells (Homo sapiens, UniProt P23415).
T1 construct: expressed in transfected cells; host or cells: HEK 293T cells infected with replication-defective HSV vector vHGlyRα1 (HCMV promoter), MOI 10
T1 sequence (P23415 29-457): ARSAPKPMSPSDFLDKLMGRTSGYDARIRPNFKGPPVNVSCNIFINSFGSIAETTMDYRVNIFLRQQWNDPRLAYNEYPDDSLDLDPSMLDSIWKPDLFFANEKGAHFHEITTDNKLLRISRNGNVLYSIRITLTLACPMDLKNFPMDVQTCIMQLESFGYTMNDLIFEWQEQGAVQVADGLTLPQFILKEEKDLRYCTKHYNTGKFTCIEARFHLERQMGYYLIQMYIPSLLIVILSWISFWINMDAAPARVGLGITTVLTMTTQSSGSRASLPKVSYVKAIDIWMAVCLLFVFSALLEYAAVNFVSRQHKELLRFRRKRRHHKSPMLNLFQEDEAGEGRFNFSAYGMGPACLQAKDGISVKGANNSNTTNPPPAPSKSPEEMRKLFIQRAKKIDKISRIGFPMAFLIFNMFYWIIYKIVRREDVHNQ
Description: glycine-mediated whole-cell currents, voltage-clamp recording. The assay is classed as cell-based. Particulars: for mean peak current: 24 hours post-infection, MOI 10; for percent desensitization: 100×(1−ISS/Ipeak). The method, then: (§1) Human embryonic kidney (HEK) 293T cells were maintained as previously described (Qian et al., J. Physiol., 562, 319-31 (2005)). For recordings, HEK 293T cells were plated onto glass coverslips pretreated with poly-D-lysine (0.1 mg/ml) and rat-tail collagen (0.1 mg/ml; BD Biosciences, San Jose, Calif.) in 35 mm culture dishes at 1-2×10^5 cells per dish. 24 hours after plating, the cells were infected with the GlyR-HSV construct. For infections the growth medium was removed, the cells were washed twice with serum free growth medium, and vHGlyRα1 was added at a multiplicity of infection (MOI) of 10. The cells were then incubated at 37° C. for 1 hour. Following incubation, 1.5 ml of growth medium (with serum) was added and the cells were incubated for an additional 24 hours at 37° C. Recordings were then performed 24 hours post-infection at room temperature. Glycine-mediated whole-cell currents were recorded with an Axopatch 200 amplifier (Molecular Devices, Union City, Calif.) in voltage-clamp mode. Solutions were delivered via an in-house fabricated fast perfusion system (Qian et al., J. Physiol., 538, 65-77 (2002)). The external solution contains (in mM): 140 NaCl, 5 KCl, 2 CaCl2), 1 MgCl2, and 10 HEPES; pH is 7.2+0.05, adjusted with NaOH and osmolality 290+10 adjusted with sucrose as needed. The internal solution contains (in mM): 140 CsCl, 1 CaCl2), 1 MgCl2, 2 MgATP, 10 HEPES, and 10 EGTA; pH is 7.3+0.05, adjusted with CsOH and osmolality 300+0.05. Data were recorded with a Digidata 1322A digitizer under the control of pClamp 9.2 software (Molecular Devices) and all analyses were performed with Clampfit 9.2 (Molecular Devices) or Origin 7.0 (OriginLab, Northampton, Mass.). Percent desensitization was measured as 100×(1−ISS/Ipeak), where ISS and IPeak are the amplitudes of current at steady state and peak, respectively.

For assay [2], the system named is formalin-induced nociceptive behavior. Description: rat formalin model of pain. Type of assay: in vivo.
Description: For in vivo studies, rats were subcutaneously injected with vHGlyRα1 or vHG, a control vector without al GlyR, into the plantar surface of the right hind foot. Analgesic effects of viral injections were assessed one week later by subcutaneous injection of formalin.
Specifically, 3-month-old male Sprague-Dawley rats (225-250 g) were injected with 200 μl (1×10^8 plaque forming units) of either vHGlyRα1 or vHG into the plantar surface of the right hind foot. One week later the analgesic properties of the vectors was assessed by subcutaneously injecting 50 μl of 2.5% formalin into the right hind foot and assessing pain-related behaviors as previously described (Goss et al., Gene Ther., 8, 551-6 (2001)). […] The beginning of second phase pain varied between animals from 20 to 40 minutes; this variation was independent of the vector used.
Assay [3] deals with uninfected HEK 293T cells. The note with it: uninfected HEK 293T cells (N=4). The method, then: as §1, with “Solutions were delivered via an in-house fabricated fast perfusion system (Qian et al., J. Physiol., 538, 65-77 (2002)). The external solution contains (in mM): 140 NaCl, 5 KCl, 2 CaCl2), 1 MgCl2, and 10 HEPES; pH is 7.2+0.05, adjusted with NaOH and osmolality 290+10 adjusted with sucrose as needed. The internal solution contains (in mM): 140 CsCl, 1 CaCl2), 1 MgCl2, 2 MgATP, 10 HEPES, and 10 EGTA; pH is 7.3+0.05, adjusted with CsOH and osmolality 300+0.05.” left out

Assay [4] has as its target T2, mutant (M287L) mouse glycine α1 receptor (Mus musculus, UniProt Q64018, M315L).
T2 sequence (Q64018 29-457 M315L): T1 sequence (P23415 29-457) with M287L, E334D, A337G, S368N, Q429K
Particulars: M287L mutation versus wild-type; cited from earlier work.

The mark [5] stands for this setting: higher glycine concentration (1 mM).
Where [6] appears, read: lower glycine concentration (50 uM).

Regarding `NCC(=O)O` [glycine], the mean peak current in assay [1] (50 uM glycine) is given as −3.57+0.59 nA; in assay [1] (1 mM glycine), −9.25+1.47 nA. Besides, the figures for the 10-90% rise time in assay [1] (setting [5]) and in assay [1] (setting [6]) were 11.4 ± 1.0 ms and 265.2 ± 79.1 ms, respectively. In addition, the percent desensitization in assay [1] (setting [5]) is recorded as 89.8+1.1%; in assay [1] (setting [6]), 73.4+7.3%. In addition, the “nociceptive behavior following glycine application” value in assay [2] (vHG transfected animals (control vector)) is “small, transient, non-significant dip”. Further, in assay [2] (vHGlyRα1-infected animals, 50 μl of 100 mM glycine at the 30 minute time point), the “second phase pain following injection of glycine” value is “significantly reduced”. Moreover, the “current response to application of glycine” value in assay [3] is “failed to elicit a current response”.

In the case of `FC(F)OC(F)(F)C(F)Cl` (stereo not shown) [enflurane], the “sensitivity of the receptor to the volatile anesthetic” value in assay [4] was “greatly enhanced sensitivity”.

Values taken from US11725038B2 (priority 2007, dated 2023).
